Experimental data reported in patent US6001353A, “20α-alpha-hydroxy steroid dehydrogenase related material and methods” (priority 1997, dated 1999).

Experiments:
recombinant 20α-HSD [1] = target: T1, recombinant 20α-HSD (Rattus norvegicus, UniProt P51652); assay: Steady state kinetic constants (Lineweaver-Burk); type: biochemical; parameters: a DNA fragment of 1.2 Kb containing the entire coding region of 20α-HSD; GST (E. coli preparation only; removed with thrombin) (N, cleaved yes); made in house; host or cells: E. coli DH5α (pGEX-4T-2) and Sf-9 insect cells (baculovirus, pBlueBacIII); conditions: for concentration at which enzyme activity reached saturation / maximal activity: bacterially expressed enzyme, other reactant fixed (NADP 1 mM or 20α-hydroxyprogesterone 100 μM)
T1 sequence (P51652 1-323): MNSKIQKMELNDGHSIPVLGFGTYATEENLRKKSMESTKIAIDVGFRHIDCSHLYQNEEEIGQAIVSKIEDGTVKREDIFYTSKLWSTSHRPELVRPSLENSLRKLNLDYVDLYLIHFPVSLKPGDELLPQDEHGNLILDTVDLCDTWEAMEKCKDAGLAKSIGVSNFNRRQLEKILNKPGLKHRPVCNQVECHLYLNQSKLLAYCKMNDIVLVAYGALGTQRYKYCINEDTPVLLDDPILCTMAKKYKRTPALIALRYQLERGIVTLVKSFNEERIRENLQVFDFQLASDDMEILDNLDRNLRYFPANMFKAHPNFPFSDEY
Text: The data were transformed into a reciprocal Lineweaver-Burk plot to calculate the Km and maximum velocity (Vmax) values.

recombinant 20α-HSD [2] = target: T1, recombinant 20α-HSD; assay: Aldo-keto (aldose/aldehyde) reductase activity, spectrophotometric NADPH oxidation at 340 nm; type: biochemical; parameters: a DNA fragment of 1.2 Kb containing the entire coding region of 20α-HSD; GST (E. coli preparation only; removed with thrombin) (N, cleaved yes); made in house; host or cells: E. coli DH5α (pGEX-4T-2) and Sf-9 insect cells (baculovirus, pBlueBacIII); conditions: for activity relative to that observed with 20α-hydroxyprogesterone: maximal activity among aldose/aldehyde reductase substrates; for reduction of substrate by 20α-HSD (in words): purified recombinant 20α-HSD proteins
Experimental: Aldo-keto reductase activity of the recombinant 20α-HSD was assayed spectrophotometrically by measuring the rate of oxidation of NADPH at 340 nm at 37° C. using a saturating concentration of benzaldehyde, 2-nitrobenzaldehyde, D,L -glyceraldehyde methylgloxal, 9,10-phenanthrequinone or ^D -galactose [Azhar et al., Biochemistry 26:7047-7057 (1987)].

recombinant 20α-HSD [3] = target: T1, recombinant 20α-HSD; assay: Substrate specificity, oxidation/reduction of steroid substrates, spectrophotometric; type: biochemical; parameters: a DNA fragment of 1.2 Kb containing the entire coding region of 20α-HSD; GST (E. coli preparation only; removed with thrombin) (N, cleaved yes); made in house; host or cells: E. coli DH5α (pGEX-4T-2) and Sf-9 insect cells (baculovirus, pBlueBacIII); conditions: for Recombinant 20α HSD activity, expressed in E. coli: enzyme expressed in E. coli; for Recombinant 20α HSD activity, expressed in E. coli / Recombinant 20α HSD activity, expressed in Sf-9 cells: spectrophotometric; for Recombinant 20α HSD activity, expressed in Sf-9 cells: enzyme expressed in Sf-9 cells
Experimental: (§1) Enzyme activity of the recombinant 20α-HSD was determined by the rate of conversion of [1-2^3 H]-20α-hydroxy-pregn-4-ene-3-one (20α-hydroxprogesterone) to [1,2^3 H]progesterone in the presence of NADPH as described by Jones & Hsueh [J. Biol. Chem. 256:1248-1254 (1981)]. Enzyme activity was measured in this manner due to the fact that in an in vitro setting the reaction may be reversed, i.e. conversion of 20α-hydroxyprogesterone to progesterone. The assay mixtures (0.05 ml) contained 100 μM [1,2^3 H]hydroxyprogesterone [Dupont-New England Nuclear Research Products, Boston Mass.] […] Following incubation at 37° C. for 30 minutes, the [^3 H]progesterone content of each sample was determined after isolation by thin layer chromatography isolation. One unit of enzyme activity is defined as that amount of enzyme catalyzing the formation of 1 nmol of [^3 H]progesterone/minute from [1,2^3 H]hydroxyprogesterone. Specific activity is expressed as units/min/mg protein. The protein concentration was determined by the Bradford method using bovine serum albumin [Sigma Chemical Co, St. Louis, Mo.] as the standard [Bradford, Anal. Biochem. 72:248-254 (1976)]. […] Acta. 799:51-58 (1984); Noda et al., Biochim Biophys. Acta. 1079:112-118 (1991)].
To determine substrate specificity of recombinant 20α-HSD, the oxidation/reduction of several steroid substrates was also studied. […] Acta. 799:51-58 (1984); Noda et al., Biochim Biophys. Acta. 1079:112-118 (1991)]. […] However, compared to 20α-hydroxyprogesterone, 20α-HSD activity toward 17α-hydroxyprogesterone was lower, and its activity with progesterone was relatively higher.
The enzyme activity was measured spectrophotometrically. The data are expressed as the mean of duplicate determinations from three separate experiments. ND, not detected.

[4] = substrate: NC(=O)c1ccc[n+]([C@@H]2O[C@H](COP(=O)([O-])OP(=O)(O)OC[C@H]3O[C@@H](n4cnc5c(N)ncnc54)[C@H](OP(=O)(O)O)[C@@H]3O)[C@@H](O)[C@H]2O)c1; assay: purified protein, by the assay type
[5] = substrate: C[C@H](O)[C@H]1CC[C@H]2[C@@H]3CCC4=CC(=O)CC[C@]4(C)[C@H]3CC[C@]12C; assay: Steady state kinetic constants (Lineweaver-Burk); type: biochemical, rat
recombinant 20α-HSD [6] = target: T1, recombinant 20α-HSD; assay: 20α-HSD enzyme activity: conversion of [3H]20α-hydroxyprogesterone to [3H]progesterone; type: biochemical; parameters: a DNA fragment of 1.2 Kb containing the entire coding region of 20α-HSD; GST (E. coli preparation only; removed with thrombin) (N, cleaved yes); made in house; host or cells: E. coli DH5α (pGEX-4T-2) and Sf-9 insect cells (baculovirus, pBlueBacIII); conditions: for Mean Specific Activity ± SE: purified recombinant enzyme, Table 3
Experimental: as §1

[7] = other: enzyme expressed in E. coli, other reactant fixed (NADP 1 mM or 20α-hydroxyprogesterone 100 μM)
[8] = other: enzyme expressed in Sf-9 cells (baculovirus)

NC(=O)c1ccc[n+]([C@@H]2O[C@H](COP(=O)([O-])OP(=O)(O)OC[C@H]3O[C@@H](n4cnc5c(N)ncnc54)[C@H](OP(=O)(O)O)[C@@H]3O)[C@@H](O)[C@H]2O)c1 [NADP]
concentration at which enzyme activity reached saturation / maximal activity (recombinant 20α-HSD [1]): about 100 μM

O=Cc1ccccc1 [Benzaldehyde]
activity relative to that observed with 20α-hydroxyprogesterone (recombinant 20α-HSD [2]): approximately a third
reduction of substrate by 20α-HSD (in words) (recombinant 20α-HSD [2]): very efficiently

C[C@]12CCC(=O)C[C@@H]1CC[C@@H]1[C@@H]2CC[C@]2(C)[C@@H](O)CC[C@@H]12 [5α-dihydrotestosterone]
action of recombinant 20α-HSD on substrate (in words) (recombinant 20α-HSD [3]): did not act on

CC(=O)[C@@]1(O)CC[C@H]2[C@@H]3CCC4=CC(=O)CC[C@]4(C)[C@H]3CC[C@@]21C [17α-Hydroxyprogesterone]
Recombinant 20α HSD activity, expressed in E. coli (recombinant 20α-HSD [3]): 97 nmol/min/mg protein
Recombinant 20α HSD activity, expressed in Sf-9 cells (recombinant 20α-HSD [3]): 85 nmol/min/mg protein

C[C@]12C[C@H](O)[C@H]3[C@@H](CCC4=CC(=O)CC[C@@]43C)[C@@H]1CC[C@@H]2C(=O)CO [Corticosterone]
action of recombinant 20α-HSD on substrate (in words) (recombinant 20α-HSD [3]): did not act on

O=CC(O)CO (racemic) [D,L -Glyceraldehyde]
activity relative to that observed with 20α-hydroxyprogesterone (recombinant 20α-HSD [2]): approximately a third
reduction of substrate by 20α-HSD (in words) (recombinant 20α-HSD [2]): very efficiently

CC(=O)[C@H]1CC[C@H]2[C@@H]3CCC4=CC(=O)CC[C@]4(C)[C@H]3CC[C@]12C [Progesterone]
Recombinant 20α HSD activity, expressed in E. coli (recombinant 20α-HSD [3]): 459 nmol/min/mg protein
Recombinant 20α HSD activity, expressed in Sf-9 cells (recombinant 20α-HSD [3]): 352 nmol/min/mg protein

O=Cc1ccc([N+](=O)[O-])cc1 [4-Nitrobenzaldehyde]
reduction of substrate by 20α-HSD (in words) (recombinant 20α-HSD [2]): very efficiently

C[C@H](O)[C@H]1CC[C@H]2[C@@H]3CCC4=CC(=O)CC[C@]4(C)[C@H]3CC[C@]12C [20α-Hydroxyprogesterone, 20α-hydroxy-pregn-4-ene-3-one]
Recombinant 20α HSD activity, expressed in E. coli (recombinant 20α-HSD [3]): 321 nmol/min/mg protein
Recombinant 20α HSD activity, expressed in Sf-9 cells (recombinant 20α-HSD [3]): 250 nmol/min/mg protein
concentration at which enzyme activity reached saturation / maximal activity (recombinant 20α-HSD [1]): around 10 μM

B1: recombinant 20α-HSD (Rattus norvegicus) (protein)
chain: MNSKIQKMELNDGHSIPVLGFGTYATEENLRKKSMESTKIAIDVGFRHIDCSHLYQNEEEIGQAIVSKIEDGTVKREDIFYTSKLWSTSHRPELVRPSLENSLRKLNLDYVDLYLIHFPVSLKPGDELLPQDEHGNLILDTVDLCDTWEAMEKCKDAGLAKSIGVSNFNRRQLEKILNKPGLKHRPVCNQVECHLYLNQSKLLAYCKMNDIVLVAYGALGTQRYKYCINEDTPVLLDDPILCTMAKKYKRTPALIALRYQLERGIVTLVKSFNEERIRENLQVFDFQLASDDMEILDNLDRNLRYFPANMFKAHPNFPFSDEY
notes: a DNA fragment of 1.2 Kb containing the entire coding region of 20α-HSD; GST (E. coli preparation only; removed with thrombin) (N, cleaved yes); made in house; host or cells: E. coli DH5α (pGEX-4T-2) and Sf-9 insect cells (baculovirus, pBlueBacIII)
Km [4, 7]: 9.5 µM
Km [4, 8]: 9.6 µM
Km [5, 7]: 5.9 µM
Km [5, 8]: 5.8 µM

B2: recombinant 20α-HSD expressed in E. coli: rat 20α-HSD expressed as GST fusion in E. coli DH5α, thrombin-cleaved and purified (protein, UniProt P51652 1-323, looked up)
Aldo-keto reductase family 1 …: MNSKIQKMELNDGHSIPVLGFGTYATEENLRKKSMESTKIAIDVGFRHIDCSHLYQNEEEIGQAIVSKIEDGTVKREDIFYTSKLWSTSHRPELVRPSLENSLRKLNLDYVDLYLIHFPVSLKPGDELLPQDEHGNLILDTVDLCDTWEAMEKCKDAGLAKSIGVSNFNRRQLEKILNKPGLKHRPVCNQVECHLYLNQSKLLAYCKMNDIVLVAYGALGTQRYKYCINEDTPVLLDDPILCTMAKKYKRTPALIALRYQLERGIVTLVKSFNEERIRENLQVFDFQLASDDMEILDNLDRNLRYFPANMFKAHPNFPFSDEY
modifications: expressed in E. coli; GST tag thrombin-cleaved
notes: rat 20α-HSD expressed as GST fusion in E. coli DH5α, thrombin-cleaved and purified
Vmax values higher than those of 20α-HSD expressed in insect cells (recombinant 20α-HSD [1]; similar assay conditions): 20-30%
average specific activity of the purified preparations (recombinant 20α-HSD [6]; purified enzyme from bacterial expression system): 332 ±47 nmol/min/mg protein
Mean Specific Activity ± SE (recombinant 20α-HSD [6]): 332 ± 47 nmol/min - mg protein

B3: recombinant 20α-HSD expressed in Sf-9 cells: rat 20α-HSD expressed in baculovirus-infected Sf-9 insect cells and purified (protein, UniProt P51652 1-323, looked up)
Aldo-keto reductase family 1 …: MNSKIQKMELNDGHSIPVLGFGTYATEENLRKKSMESTKIAIDVGFRHIDCSHLYQNEEEIGQAIVSKIEDGTVKREDIFYTSKLWSTSHRPELVRPSLENSLRKLNLDYVDLYLIHFPVSLKPGDELLPQDEHGNLILDTVDLCDTWEAMEKCKDAGLAKSIGVSNFNRRQLEKILNKPGLKHRPVCNQVECHLYLNQSKLLAYCKMNDIVLVAYGALGTQRYKYCINEDTPVLLDDPILCTMAKKYKRTPALIALRYQLERGIVTLVKSFNEERIRENLQVFDFQLASDDMEILDNLDRNLRYFPANMFKAHPNFPFSDEY
modifications: expressed in baculovirus Sf-9 cells
notes: rat 20α-HSD expressed in baculovirus-infected Sf-9 insect cells and purified
Mean Specific Activity ± SE (recombinant 20α-HSD [6]): 259 ± 36 nmol/min - mg protein
